Test results reported in patent US10125121B2, “FYN kinase inhibitors” (ROTTAPHARM BIOTECH S.R.L., priority 2015, dated 2018).

How the values were obtained:
YES = YES (Homo sapiens, UniProt P07947); test: Kinase selectivity panel by Cerep
RET = RET (Homo sapiens, UniProt P07949); test: Kinase selectivity panel by Cerep; details: read-out: inhibition of RET
FLT-3 = molecular target: T1, FLT-3 (Homo sapiens, UniProt P36888); test: Kinase selectivity panel by Cerep; details: read-out: inhibition of FLT-3
T1 sequence (P36888 27-993): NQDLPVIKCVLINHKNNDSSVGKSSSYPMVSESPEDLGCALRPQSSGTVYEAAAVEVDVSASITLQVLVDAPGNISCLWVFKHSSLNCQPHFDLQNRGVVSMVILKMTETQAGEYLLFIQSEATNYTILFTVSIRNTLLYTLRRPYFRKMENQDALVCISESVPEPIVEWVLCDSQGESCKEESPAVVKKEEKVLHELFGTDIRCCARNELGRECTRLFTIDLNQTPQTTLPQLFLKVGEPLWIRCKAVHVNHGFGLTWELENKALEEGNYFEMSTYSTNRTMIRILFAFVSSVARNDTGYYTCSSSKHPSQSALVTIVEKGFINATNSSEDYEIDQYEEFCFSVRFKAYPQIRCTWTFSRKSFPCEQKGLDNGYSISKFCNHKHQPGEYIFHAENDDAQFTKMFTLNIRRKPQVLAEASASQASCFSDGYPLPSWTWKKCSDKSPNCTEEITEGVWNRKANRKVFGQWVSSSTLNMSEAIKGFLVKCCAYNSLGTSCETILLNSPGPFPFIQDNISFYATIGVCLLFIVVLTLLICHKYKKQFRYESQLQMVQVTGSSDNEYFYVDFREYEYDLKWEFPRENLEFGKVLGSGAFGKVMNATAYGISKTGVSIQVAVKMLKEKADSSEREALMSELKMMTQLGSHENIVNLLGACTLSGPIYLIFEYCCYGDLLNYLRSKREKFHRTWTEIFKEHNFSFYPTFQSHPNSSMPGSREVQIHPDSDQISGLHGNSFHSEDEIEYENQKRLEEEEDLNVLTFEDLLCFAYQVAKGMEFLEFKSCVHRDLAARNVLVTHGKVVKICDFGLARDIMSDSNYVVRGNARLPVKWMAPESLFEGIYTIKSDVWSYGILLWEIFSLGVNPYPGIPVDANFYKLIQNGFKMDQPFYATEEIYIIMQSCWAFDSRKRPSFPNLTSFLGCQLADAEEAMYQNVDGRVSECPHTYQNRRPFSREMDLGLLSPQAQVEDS

LYN = LYN (Homo sapiens, UniProt P07948); test: Kinase selectivity panel by Cerep
Chain of LYN (P07948 whole entry): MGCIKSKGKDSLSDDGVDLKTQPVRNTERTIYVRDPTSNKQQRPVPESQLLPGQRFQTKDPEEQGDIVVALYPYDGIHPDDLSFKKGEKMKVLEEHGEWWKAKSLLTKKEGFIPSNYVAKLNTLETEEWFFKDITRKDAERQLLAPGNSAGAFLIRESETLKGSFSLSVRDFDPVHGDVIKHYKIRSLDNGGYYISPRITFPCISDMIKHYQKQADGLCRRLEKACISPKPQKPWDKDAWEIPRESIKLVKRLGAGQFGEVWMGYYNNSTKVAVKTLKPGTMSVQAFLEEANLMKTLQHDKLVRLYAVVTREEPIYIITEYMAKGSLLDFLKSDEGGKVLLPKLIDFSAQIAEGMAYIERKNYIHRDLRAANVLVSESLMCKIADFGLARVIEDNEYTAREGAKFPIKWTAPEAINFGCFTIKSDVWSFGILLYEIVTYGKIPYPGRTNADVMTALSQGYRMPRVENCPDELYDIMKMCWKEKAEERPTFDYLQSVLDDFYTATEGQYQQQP

CFA induced hyperalgesia = test: CFA-induced inflammatory pain in rats (Randall-Selitto paw withdrawal threshold); assay type: in vivo; details: 3; rat, 24 h after administration
Procedure: Male Wistar rats were injected into the right hind footpad with 300 μg of Mycobacterium tuberculosis in 100 μL of liquid paraffin (Complete Freund's Adjuvant; CFA). Seventy-two hours later, compounds 2 and 26 were administered subcutaneously and 24 h after the administration, the response to noxious mechanical stimulation was assessed by measuring paw withdrawal threshold (PWT) with an analgesimeter of the Randall-Selitto type. Animals were gently restrained, and steadily increasing pressure was applied to the dorsal surface of both the ipsi-lateral (CFA-treated) and the contra-lateral paw via a dome-shaped plastic tip.
100% protection means that the animal treated with the compound and CFA can tolerate the same stimulus (weight) as the control animal which has not received CFA treatment.

SRC = SRC (Homo sapiens, UniProt P12931); test: Kinase selectivity panel by Cerep
Chain of SRC (P12931 whole entry): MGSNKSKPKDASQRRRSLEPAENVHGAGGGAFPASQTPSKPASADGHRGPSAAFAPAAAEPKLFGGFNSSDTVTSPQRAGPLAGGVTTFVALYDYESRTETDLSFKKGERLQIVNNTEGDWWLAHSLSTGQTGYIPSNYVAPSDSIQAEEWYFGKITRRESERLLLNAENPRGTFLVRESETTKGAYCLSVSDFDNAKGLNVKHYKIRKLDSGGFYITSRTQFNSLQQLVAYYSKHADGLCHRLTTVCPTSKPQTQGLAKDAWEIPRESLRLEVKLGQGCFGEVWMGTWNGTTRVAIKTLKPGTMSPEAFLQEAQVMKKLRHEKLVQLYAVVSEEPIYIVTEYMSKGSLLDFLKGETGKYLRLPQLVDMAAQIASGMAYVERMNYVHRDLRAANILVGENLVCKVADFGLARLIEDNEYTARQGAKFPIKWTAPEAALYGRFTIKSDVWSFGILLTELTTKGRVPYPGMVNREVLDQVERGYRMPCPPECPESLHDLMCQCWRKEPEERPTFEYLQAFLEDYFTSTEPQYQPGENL

[1] = molecular target: active FYN (human recombinant, 62.7 kDa) (Homo sapiens, UniProt P06241); test: In vitro kinase assay (Z′-LYTE FRET); assay type: biochemical; details: read-out: IC50(nM) FYN INHIBITION
Chain of active FYN (human recombinant, 62.7 kDa) (P06241 whole entry): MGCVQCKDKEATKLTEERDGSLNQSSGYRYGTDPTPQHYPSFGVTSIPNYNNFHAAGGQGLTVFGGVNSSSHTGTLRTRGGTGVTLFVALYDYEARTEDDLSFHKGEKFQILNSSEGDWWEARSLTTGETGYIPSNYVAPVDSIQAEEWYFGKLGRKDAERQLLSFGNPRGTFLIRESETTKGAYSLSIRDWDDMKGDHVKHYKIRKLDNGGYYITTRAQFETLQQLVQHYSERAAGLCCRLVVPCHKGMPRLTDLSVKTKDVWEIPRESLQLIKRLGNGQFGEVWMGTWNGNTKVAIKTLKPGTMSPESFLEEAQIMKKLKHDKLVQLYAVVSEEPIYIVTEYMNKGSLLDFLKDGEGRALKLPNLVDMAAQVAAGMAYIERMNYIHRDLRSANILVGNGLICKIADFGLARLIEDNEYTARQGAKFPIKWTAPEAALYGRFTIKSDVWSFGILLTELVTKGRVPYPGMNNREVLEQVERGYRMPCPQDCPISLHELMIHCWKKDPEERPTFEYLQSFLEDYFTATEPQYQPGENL

[2] = test system: mechanical hyperalgesia in meniscal tear osteoarthritis; test: Surgically induced meniscal tear osteoarthritis in the rat (MMT); assay type: in vivo
From the text: Male Sprague Dawley rats (Charles River) approximately 350 g body weight were used. Rats were anesthetized using 2.5% isoflurane in oxygen with a flow rate of 1 I per minute. The right hind leg was shaved and surgically prepared. The medial collateral ligament was exposed and transected. The meniscus was grasped with a hemostat and reflected proximally toward the femur. The meniscus was cut through its full thickness at the narrowest point. The connective tissue layer and the skin were closed with coated Vicryl 8-0 and 4-0 silk sutures, respectively. Sham operated animals underwent an identical procedure with the exception that the medial collateral ligament was exposed but not transected. After a recovery period of 2 weeks, mechanical hyperalgesia was evaluated for the following 4 weeks, once a week, before and 90 minutes after drugs administration. Pharmacological oral treatment was performed for 28 days, starting from 14 days after surgery. After 6 weeks from surgery, rats (ten animals per group) were sacrificed and the ipsilateral knee was removed for histopathological analysis.
The maximum possible effect (MPE %) was calculated by the following formula: 100*(Compound−Vehicle)/(Sham−Vehicle)

BLK = BLK (Homo sapiens, UniProt P51451); test: Kinase selectivity panel by Cerep
Chain of BLK (P51451 whole entry): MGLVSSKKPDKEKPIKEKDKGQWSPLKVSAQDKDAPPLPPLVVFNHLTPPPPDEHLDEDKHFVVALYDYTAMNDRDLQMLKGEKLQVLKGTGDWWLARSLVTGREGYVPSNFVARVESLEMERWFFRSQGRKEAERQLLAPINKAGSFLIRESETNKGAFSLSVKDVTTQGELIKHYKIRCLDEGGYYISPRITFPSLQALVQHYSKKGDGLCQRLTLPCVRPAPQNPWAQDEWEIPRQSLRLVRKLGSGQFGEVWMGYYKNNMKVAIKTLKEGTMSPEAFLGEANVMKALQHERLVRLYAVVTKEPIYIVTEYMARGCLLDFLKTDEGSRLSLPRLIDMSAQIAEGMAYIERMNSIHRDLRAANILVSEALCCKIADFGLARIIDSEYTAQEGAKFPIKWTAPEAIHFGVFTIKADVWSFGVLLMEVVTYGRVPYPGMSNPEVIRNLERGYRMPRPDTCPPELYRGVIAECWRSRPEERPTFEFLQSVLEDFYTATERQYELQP

[3] = 10 mg/kg daily orally, day 21 post surgery
[4] = 10 mg/kg daily orally, day 28 post surgery
[5] = 10 mg/kg daily orally, day 35 post surgery
[6] = 10 mg/kg daily orally, day 42 post surgery
[7] = 30 mg/kg daily orally, day 21 post surgery
[8] = 30 mg/kg daily orally, day 28 post surgery
[9] = 30 mg/kg daily orally, day 35 post surgery
[10] = 30 mg/kg daily orally, day 42 post surgery

Chain of YES (P07947 whole entry): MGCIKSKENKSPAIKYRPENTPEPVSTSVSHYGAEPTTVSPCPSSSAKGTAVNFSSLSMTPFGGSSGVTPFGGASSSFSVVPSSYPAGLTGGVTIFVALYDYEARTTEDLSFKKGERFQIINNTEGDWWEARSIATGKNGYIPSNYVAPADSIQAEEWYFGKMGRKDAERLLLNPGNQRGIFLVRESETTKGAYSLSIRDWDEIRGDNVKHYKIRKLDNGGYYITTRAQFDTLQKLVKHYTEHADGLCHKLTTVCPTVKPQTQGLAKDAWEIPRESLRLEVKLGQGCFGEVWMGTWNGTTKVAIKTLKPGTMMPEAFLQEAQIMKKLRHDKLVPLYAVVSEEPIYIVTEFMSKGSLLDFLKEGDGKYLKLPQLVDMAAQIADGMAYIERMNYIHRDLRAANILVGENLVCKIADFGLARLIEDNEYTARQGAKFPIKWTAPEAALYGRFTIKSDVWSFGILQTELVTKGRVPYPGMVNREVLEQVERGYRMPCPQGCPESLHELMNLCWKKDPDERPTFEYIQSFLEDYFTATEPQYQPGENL
Chain of RET (P07949 29-1114): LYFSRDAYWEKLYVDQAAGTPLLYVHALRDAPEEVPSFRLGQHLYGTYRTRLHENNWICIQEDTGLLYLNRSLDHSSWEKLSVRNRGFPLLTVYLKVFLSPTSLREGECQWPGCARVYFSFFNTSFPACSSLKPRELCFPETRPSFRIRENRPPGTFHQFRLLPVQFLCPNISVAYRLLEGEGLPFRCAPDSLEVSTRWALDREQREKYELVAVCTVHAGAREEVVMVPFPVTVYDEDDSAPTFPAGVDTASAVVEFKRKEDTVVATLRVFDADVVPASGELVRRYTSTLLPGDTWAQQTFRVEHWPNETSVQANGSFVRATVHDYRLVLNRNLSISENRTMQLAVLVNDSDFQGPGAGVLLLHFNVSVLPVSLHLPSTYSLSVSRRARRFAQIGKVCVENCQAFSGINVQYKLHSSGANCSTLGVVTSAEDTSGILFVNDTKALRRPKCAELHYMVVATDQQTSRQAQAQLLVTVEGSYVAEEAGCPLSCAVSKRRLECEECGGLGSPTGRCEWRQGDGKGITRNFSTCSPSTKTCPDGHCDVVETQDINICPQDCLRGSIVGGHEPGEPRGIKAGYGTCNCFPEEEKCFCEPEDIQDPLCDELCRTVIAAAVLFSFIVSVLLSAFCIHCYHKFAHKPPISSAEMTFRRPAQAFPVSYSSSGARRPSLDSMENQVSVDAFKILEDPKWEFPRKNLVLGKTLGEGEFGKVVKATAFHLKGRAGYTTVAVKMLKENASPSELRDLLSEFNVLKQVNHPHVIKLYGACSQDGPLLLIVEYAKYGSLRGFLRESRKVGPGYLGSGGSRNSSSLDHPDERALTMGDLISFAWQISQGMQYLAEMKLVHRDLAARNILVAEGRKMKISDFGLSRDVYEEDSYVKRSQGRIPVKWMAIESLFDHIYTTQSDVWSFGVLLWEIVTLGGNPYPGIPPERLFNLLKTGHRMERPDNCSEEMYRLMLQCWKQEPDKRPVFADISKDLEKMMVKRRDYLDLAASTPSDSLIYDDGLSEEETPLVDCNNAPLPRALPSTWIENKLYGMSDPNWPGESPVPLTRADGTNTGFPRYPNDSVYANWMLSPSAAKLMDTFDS

O=C(Nc1ccc(CN2CCN(c3nccc(Nc4cc(C5CC5)[nH]n4)n3)CC2)cc1)c1ccccc1C(F)(F)F [Compound 2, N-(4-((4-(4-((5-cyclopropyl-1H-pyrazol-3-yl)amino)pyrimidin-2-yl)piperazin-1-yl)methyl)phenyl)-2-(trifluoromethyl)-benzamide]
IC50 (YES): 270 nM | inhibition at 0.1 µM (RET): > 50% | inhibition at 0.1 µM (FLT-3): > 50% | IC50 (LYN): 1400 nM | % protective effect vs. CFA induced hyperalgesia (CFA induced hyperalgesia): 100% | IC50 (SRC): 730 nM | IC50 [1]: 9 nM | Pain threshold ([2]; 10 mg/kg daily orally, day 14 post surgery): 308 g | Pain threshold [2, 3]: 333 g | Pain threshold: MPE (%) [2, 3]: 30.5% | Pain threshold [2, 4]: 323 g | Pain threshold: MPE (%) [2, 4]: 22.6% | Pain threshold [2, 5]: 313 g | Pain threshold: MPE (%) [2, 5]: 18.2% | Pain threshold [2, 6]: 298 g | Pain threshold: MPE (%) [2, 6]: 21% | Pain threshold ([2]; 30 mg/kg daily orally, day 14 post surgery): 305 g | Pain threshold [2, 7]: 358 g | Pain threshold: MPE (%) [2, 7]: 44% | Pain threshold [2, 8]: 343 g | Pain threshold: MPE (%) [2, 8]: 35.5% | Pain threshold [2, 9]: 335 g | Pain threshold: MPE (%) [2, 9]: 38.2% | Pain threshold [2, 10]: 320 g | Pain threshold: MPE (%) [2, 10]: 43% | IC50 (BLK): 480 nM
